The structures appear in SMILES notation. Counter-ions that a name gives are not always drawn. Like-named read-outs stand apart in the source and are kept apart here. *1 amine or outer side, *2 acyl side, *3 side chain or, on linkers, in order; H or OH if unused. Where a SMILES comes first, the peptide text is derived from it. Bridges are numbered along the chain shown (N, C = ends). Roman numbers before positions name the chains, in order. [ ]: non-standard residue; d: D form. Actinocin(9to1) = Cc1c2oc3c(C)ccc(C(=O)[*:1])c3nc-2c(C(=O)[*:2])c(N)c1=O; NMeV = CN[C@H](C(=O)O)C(C)C; Sar = CNCC(=O)O

Assay [1] has as its target T1, SARS-CoV-2 PLpro (nsp3 1564–1878) (Severe acute respiratory syndrome coronavirus 2, UniProt P0DTD1). The experiment in a line: biochemical. Also on record: FRET-quenched peptide (Pro3) cleavage by PLpro, 10 min pre-incubation, slope over 20 min, normalised to no-compound control. The conditions noted are these: read-out: % of control remaining.
The target in assay [2] is T1, SARS-CoV-2 PLpro (nsp3 1564–1878). Description: biochemical. Also on record: FRET-quenched peptide (Pro3) cleavage by PLpro, 10 min pre-incubation, slope over 20 min, normalised to no-compound control. The following applies: read-out: % of control remaining. This is another data set of the same source.

Consider `CN[C@@H]1C[C@@H](c2ccc(Cl)c(Cl)c2)c2ccccc21` [Indatraline hydrochloride], for which the remaining activity at 1.25 µM in assay [1] (Well no.=969, low concentration screen) was determined as 106%. For the same compound, the remaining activity at 3.75 µM in assay [2] (Well no.=969, high concentration screen) stood at 106%.

On to `CN(C)CCOC(C)(c1ccccc1)c1ccccn1` (stereo not drawn) [Doxylamine (succinate)], for which the remaining activity at 1.25 µM in assay [1] (Well no.=6421, low concentration screen) stood at 99.2%. For the same compound, in assay [2] (Well no.=6421, high concentration screen), the remaining activity at 3.75 µM is 102%.

Consider `N[C@@H](CCC(=O)O)C(=O)O` [L-Glutamic acid monosodium salt], for which, in assay [1] (Well no.=8573, low concentration screen), the remaining activity at 1.25 µM was determined as 103%. Besides, the remaining activity at 3.75 µM in assay [2] (Well no.=8573, high concentration screen) is 106%.

With `Cc1ccc(NC(=O)Nc2cc([C@H]3C[C@H]3C(=O)O)ccc2N(CC(C)C)CC(C)C)cc1` [IDO-IN-4], the remaining activity at 1.25 µM in assay [1] (Well no.=8647, low concentration screen) came out at 104%. Moreover, the remaining activity at 3.75 µM in assay [2] (Well no.=8647, high concentration screen) was determined as 106%.

Turning to `Nc1ncnc2c1ncn2[C@@H]1O[C@H](COP(=O)(O)OP(=O)(O)O)[C@@H](O)[C@H]1O` [Adenosine 5'-diphosphate], the remaining activity at 1.25 µM turned out to be 104% in assay [1] (Well no.=7363, low concentration screen) and 102% in assay [1] (Well no.=7868, low concentration screen). For the same compound, the remaining activity at 3.75 µM was found to be 105% in assay [2] (Well no.=7363, high concentration screen) and 104% in assay [2] (Well no.=7868, high concentration screen).

Take `CC(C)(C(=O)O)c1ccc(C(O)CCCN2CCC(C(O)(c3ccccc3)c3ccccc3)CC2)cc1` (stereo not drawn) [Fexofenadine hydrochloride]: the remaining activity at 1.25 µM in assay [1] (Well no.=425, low concentration screen) was found to be 93.1%. The remaining activity at 3.75 µM in assay [2] (Well no.=425, high concentration screen) is 92.8%.

Consider `CN(CCOc1ccc(NS(C)(=O)=O)cc1)CCc1ccc(NS(C)(=O)=O)cc1` [Dofetilide], for which the remaining activity at 1.25 µM in assay [1] (Well no.=1659, low concentration screen) amounted to 108%. For the same compound, the remaining activity at 3.75 µM in assay [2] (Well no.=1659, high concentration screen) was found to be 106%.

Take `CCC1(C)CC(=O)NC1=O` (stereo not drawn) [Ethosuximide]: the remaining activity at 1.25 µM in assay [1] (Well no.=653, low concentration screen) was 96.4%. In addition, the remaining activity at 3.75 µM in assay [2] (Well no.=653, high concentration screen) was found to be 97.7%.

For `CC(C)(C)C[C@@H]1N[C@@H](C(=O)N[C@H]2CC[C@H](O)CC2)[C@H](c2cccc(Cl)c2F)[C@]12C(=O)Nc1cc(Cl)ccc12` [SAR405838], the remaining activity at 1.25 µM in assay [1] (Well no.=6550, low concentration screen) amounted to 109%. In assay [2] (Well no.=6550, high concentration screen), the remaining activity at 3.75 µM came to 110%.

Consider `Clc1cccc(N2CCNCC2)c1` [1-(3-Chlorophenyl)piperazine dihydrochloride], for which, in assay [1] (Well no.=36, low concentration screen), the remaining activity at 1.25 µM was 106%. In assay [2] (Well no.=36, high concentration screen), the remaining activity at 3.75 µM stood at 104%.

Regarding `Cc1nc(N)sc1-c1ccnc(Nc2ccc(N3CCOCC3)cc2)n1` [CYC-116], in assay [1] (Well no.=2885, low concentration screen), the remaining activity at 1.25 µM was 103%. For the same compound, the remaining activity at 3.75 µM in assay [2] (Well no.=2885, high concentration screen) was found to be 101%.

Take `CCCCCCOC(=O)[C@]1(O)C[C@@H]2O[C@@]1(C)n1c3ccccc3c3c4c(c5c6ccccc6n2c5c31)C(=O)NC4` [KT5720]: the remaining activity at 1.25 µM in assay [1] (Well no.=2481, low concentration screen) is 105%. Further, the remaining activity at 3.75 µM in assay [2] (Well no.=2481, high concentration screen) was determined as 109%.

`O=C(O)Cn1nnc(-c2cc(N3CCC(Oc4cc(F)ccc4Br)CC3)no2)n1` [MK-8245]: the remaining activity at 1.25 µM in assay [1] (Well no.=4842, low concentration screen) was found to be 90.5%. Also, the remaining activity at 3.75 µM in assay [2] (Well no.=4842, high concentration screen) stood at 85.1%.

Take `CCCCC1C(=O)N(c2ccccc2)N(c2ccccc2)C1=O` [Phenylbutazone]: the remaining activity at 1.25 µM stood at 102% in assay [1] (Well no.=1303, low concentration screen) and 101% in assay [1] (Well no.=2105, low concentration screen). Moreover, the remaining activity at 3.75 µM in assay [2] (Well no.=1303, high concentration screen) amounted to 99.3%; in assay [2] (Well no.=2105, high concentration screen), 101%.

As for `Nc1nc2[nH]cc(CCc3ccc(C(=O)N[C@@H](CCC(=O)O)C(=O)O)cc3)c2c(=O)[nH]1` [Pemetrexed (disodium hemipenta hydrate)], the remaining activity at 1.25 µM in assay [1] (Well no.=7604, low concentration screen) was 95.1%. In assay [2] (Well no.=7604, high concentration screen), the remaining activity at 3.75 µM stood at 95.6%.

As to `O=c1[nH]cc(F)c(=O)[nH]1` [5-Fluorouracil], the remaining activity at 1.25 µM in assay [1] (Well no.=661, low concentration screen) worked out at 97.2%; in assay [1] (Well no.=2116, low concentration screen) it was 95.8%. Besides, the remaining activity at 3.75 µM in assay [2] (Well no.=661, high concentration screen) turned out to be 98.8%; in assay [2] (Well no.=2116, high concentration screen), 98.2%.

Turning to `CC1(C)CCC2=C(O1)c1ccccc1C(=O)C2=O` [_-Lapachone], the remaining activity at 1.25 µM in assay [1] (Well no.=6166, low concentration screen) is 104%. Further, the remaining activity at 3.75 µM in assay [2] (Well no.=6166, high concentration screen) stood at 79.2%.

As to `CCCCC[C@H](O)/C=C/[C@H]1[C@H](O)CC(=O)[C@@H]1CCCCCCC(=O)O` [Prostaglandin E1], the remaining activity at 1.25 µM came out at 92.3% in assay [1] (Well no.=2192, low concentration screen); 95.3% in assay [1] (Well no.=3090, low concentration screen); 103% in assay [1] (Well no.=4473, low concentration screen); 93.1% in assay [1] (Well no.=4475, low concentration screen); 91.2% in assay [1] (Well no.=8109, low concentration screen). Besides, the remaining activity at 3.75 µM in assay [2] (Well no.=2192, high concentration screen) worked out at 91.2%; in assay [2] (Well no.=3090, high concentration screen), 97%; in assay [2] (Well no.=4473, high concentration screen), 101%; in assay [2] (Well no.=4475, high concentration screen), 94.7%; in assay [2] (Well no.=8109, high concentration screen) it was 95%.

As for `Cc1c2oc3c(C)ccc(C(=O)N[C@@H]4C(=O)N[C@H](C(C)C)C(=O)N5CCC[C@H]5C(=O)N(C)CC(=O)N(C)[C@@H](C(C)C)C(=O)O[C@@H]4C)c3nc-2c(C(=O)N[C@@H]2C(=O)N[C@H](C(C)C)C(=O)N3CCC[C@H]3C(=O)N(C)CC(=O)N(C)[C@@H](C(C)C)C(=O)O[C@@H]2C)c(N)c1=O` [Actinomycin D] (I: T[dV]P[Sar][NMeV] / II: T[dV]P[Sar][NMeV]; ester I:1-I:C, II:1-II:C; linker I:N-II:N via Actinocin(9to1)), the remaining activity at 1.25 µM in assay [1] (Well no.=3075, low concentration screen) is 103%. For the same compound, in assay [2] (Well no.=3075, high concentration screen), the remaining activity at 3.75 µM was 103%.

As to `[N-]=[N+]=N[C@]1(CO)O[C@@H](n2ccc(N)nc2=O)[C@@H](O)[C@@H]1O` [RO-9187], the remaining activity at 1.25 µM in assay [1] (Well no.=7762, low concentration screen) is 98.5%. Moreover, the remaining activity at 3.75 µM in assay [2] (Well no.=7762, high concentration screen) worked out at 101%.

`CCOc1ccc(Cc2cc([C@@H]3O[C@H](SC)[C@@H](O)[C@H](O)[C@H]3O)ccc2Cl)cc1` [Sotagliflozin (LX4211)]: the remaining activity at 1.25 µM in assay [1] (Well no.=8820, low concentration screen) is 97.4%. For the same compound, the remaining activity at 3.75 µM in assay [2] (Well no.=8820, high concentration screen) stood at 95.6%.

Turning to `Oc1ccc2c3c1O[C@H]1[C@@H](O)CC[C@@]4(O)[C@@H](C2)N(CC2CCC2)CC[C@]314` [Nalbuphine], the remaining activity at 1.25 µM in assay [1] is 95.6%. Also, the remaining activity at 3.75 µM in assay [2] came to 97.3%.

Turning to `O=C(Nc1cccc(C(=O)Nc2ccc(S(=O)(=O)O)c3cc(S(=O)(=O)O)cc(S(=O)(=O)O)c23)c1)Nc1cccc(C(=O)Nc2ccc(S(=O)(=O)O)c3cc(S(=O)(=O)O)cc(S(=O)(=O)O)c23)c1` [NF 023], in assay [1] (Well no.=813, low concentration screen), the remaining activity at 1.25 µM was found to be 88.1%. Besides, the remaining activity at 3.75 µM in assay [2] (Well no.=813, high concentration screen) was found to be 89.2%.

`C[N+]1(C)C2CCC1CC(OC(=O)c1c[nH]c3ccccc13)C2` (stereo not drawn) [3-Tropanylindole-3-carboxylate methiodide]: in assay [1] (Well no.=1520, low concentration screen), the remaining activity at 1.25 µM turned out to be 91.9%. For the same compound, the remaining activity at 3.75 µM in assay [2] (Well no.=1520, high concentration screen) worked out at 90.6%.

With `COc1ccc2cc([C@@H](C)C(=O)O)ccc2c1` [(-)-Naproxen sodium], in assay [1] (Well no.=1110, low concentration screen), the remaining activity at 1.25 µM was found to be 95.3%. Also, in assay [2] (Well no.=1110, high concentration screen), the remaining activity at 3.75 µM worked out at 97.6%.

`N[C@@H](CO)C(=O)O` [L-Serine]: the remaining activity at 1.25 µM in assay [1] (Well no.=7695, low concentration screen) was 105%. Further, the remaining activity at 3.75 µM in assay [2] (Well no.=7695, high concentration screen) is 110%.

The record behind these values is PMC8286840, “Identifying SARS-CoV-2 antiviral compounds by screening for small molecule inhibitors of Nsp3 papain-like protease” (Biochemical Journal, 2021).
